Experiment [1] deals with Dual specificity protein phosphatase 3 (Homo sapiens, UniProt P51452). As to the kind of experiment: VHR phosphatase inhibition, dose response, selectivity assay for STEP inhibitor project, biochemical (AID 602374). It counts as functional. To be noted: read-out: IC50_Mean.
The target in experiment [2] is Tyrosine-protein phosphatase non-receptor type 11 (Homo sapiens, UniProt Q06124). As to the kind of experiment: SHP2 phosphatase inhibition, dose response, selectivity assay for STEP inhibitor project, biochemical (AID 602367). It counts as functional. To be noted: read-out: IC50_Mean.
Tyrosine-protein phosphatase non-receptor type 11, sequence (Q06124 whole entry): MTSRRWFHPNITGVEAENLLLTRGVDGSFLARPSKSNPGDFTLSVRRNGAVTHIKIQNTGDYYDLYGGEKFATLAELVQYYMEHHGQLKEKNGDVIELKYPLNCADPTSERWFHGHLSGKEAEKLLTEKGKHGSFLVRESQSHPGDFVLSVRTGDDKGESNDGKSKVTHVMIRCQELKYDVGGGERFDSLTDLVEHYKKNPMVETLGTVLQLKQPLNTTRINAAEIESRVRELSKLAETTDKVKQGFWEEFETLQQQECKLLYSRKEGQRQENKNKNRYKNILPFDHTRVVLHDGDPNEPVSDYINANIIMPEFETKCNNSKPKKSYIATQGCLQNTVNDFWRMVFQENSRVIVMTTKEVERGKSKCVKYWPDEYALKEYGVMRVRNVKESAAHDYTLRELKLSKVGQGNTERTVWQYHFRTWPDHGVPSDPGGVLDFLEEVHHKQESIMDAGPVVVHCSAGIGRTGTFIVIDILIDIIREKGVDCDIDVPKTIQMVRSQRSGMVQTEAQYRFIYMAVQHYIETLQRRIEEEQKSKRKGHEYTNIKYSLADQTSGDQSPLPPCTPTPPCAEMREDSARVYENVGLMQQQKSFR
Experiment [3] concerns the target Tyrosine-protein phosphatase non-receptor type 5 (Homo sapiens, UniProt P54829). In words: STEP phosphatase inhibitors, confirmation, biochemical, fluorescence intensity, uHTS hits (AID 602372). As to conditions: read-out: IC50_Mean. Format: functional.
Experiment [4] has as its target T1, Tyrosine-protein phosphatase non-receptor type 22 (Homo sapiens, UniProt Q9Y2R2).
T1 sequence (Q9Y2R2 whole entry): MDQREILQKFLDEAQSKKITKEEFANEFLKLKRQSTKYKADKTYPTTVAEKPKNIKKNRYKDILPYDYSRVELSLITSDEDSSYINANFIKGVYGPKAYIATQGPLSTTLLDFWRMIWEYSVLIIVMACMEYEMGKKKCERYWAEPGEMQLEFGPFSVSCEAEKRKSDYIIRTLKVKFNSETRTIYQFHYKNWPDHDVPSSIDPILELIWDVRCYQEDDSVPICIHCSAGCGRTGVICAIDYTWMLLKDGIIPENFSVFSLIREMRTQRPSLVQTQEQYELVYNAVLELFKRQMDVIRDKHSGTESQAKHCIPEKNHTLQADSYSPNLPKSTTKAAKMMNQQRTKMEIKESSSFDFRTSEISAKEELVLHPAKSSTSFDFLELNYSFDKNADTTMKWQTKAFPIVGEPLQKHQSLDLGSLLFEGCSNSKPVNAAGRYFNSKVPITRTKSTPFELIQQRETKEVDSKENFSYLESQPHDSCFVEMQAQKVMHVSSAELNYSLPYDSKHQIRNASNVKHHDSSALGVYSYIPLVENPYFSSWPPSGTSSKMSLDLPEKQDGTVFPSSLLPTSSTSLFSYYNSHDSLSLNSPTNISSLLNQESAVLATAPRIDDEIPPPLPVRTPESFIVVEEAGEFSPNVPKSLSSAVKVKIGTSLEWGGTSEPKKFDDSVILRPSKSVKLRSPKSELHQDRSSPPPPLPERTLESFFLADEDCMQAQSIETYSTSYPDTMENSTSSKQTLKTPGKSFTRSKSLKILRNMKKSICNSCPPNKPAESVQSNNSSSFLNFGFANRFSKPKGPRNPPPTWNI
As to the kind of experiment: PTPN22 phosphatase inhibition, dose response, selectivity assay for STEP inhibitor project, biochemical (AID 624241). Format: functional.

For experiment [5], the target named is Mu-type opioid receptor (Homo sapiens, UniProt P35372). Format: functional, cell-based.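 Further: U2OS cells with beta-arrestin recruitment to OPRM1 by beta-gal complementation.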
Mu-type opioid receptor, sequence (P35372 whole entry): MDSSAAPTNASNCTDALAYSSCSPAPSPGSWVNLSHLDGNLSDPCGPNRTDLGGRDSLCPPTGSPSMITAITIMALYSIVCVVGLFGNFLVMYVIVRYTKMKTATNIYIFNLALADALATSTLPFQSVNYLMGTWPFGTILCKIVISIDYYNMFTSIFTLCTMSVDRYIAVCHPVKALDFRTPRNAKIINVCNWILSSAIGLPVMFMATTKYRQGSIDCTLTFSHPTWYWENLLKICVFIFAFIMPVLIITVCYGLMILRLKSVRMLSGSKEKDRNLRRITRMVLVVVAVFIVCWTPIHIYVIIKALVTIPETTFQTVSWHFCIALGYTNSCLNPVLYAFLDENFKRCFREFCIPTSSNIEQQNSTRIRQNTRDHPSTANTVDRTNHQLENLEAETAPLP
Experiment [6] deals with 5-hydroxytryptamine receptor 2A (Mus musculus, UniProt P35363). Format: functional, cell-based.
5-hydroxytryptamine receptor 2A, sequence (P35363 whole entry): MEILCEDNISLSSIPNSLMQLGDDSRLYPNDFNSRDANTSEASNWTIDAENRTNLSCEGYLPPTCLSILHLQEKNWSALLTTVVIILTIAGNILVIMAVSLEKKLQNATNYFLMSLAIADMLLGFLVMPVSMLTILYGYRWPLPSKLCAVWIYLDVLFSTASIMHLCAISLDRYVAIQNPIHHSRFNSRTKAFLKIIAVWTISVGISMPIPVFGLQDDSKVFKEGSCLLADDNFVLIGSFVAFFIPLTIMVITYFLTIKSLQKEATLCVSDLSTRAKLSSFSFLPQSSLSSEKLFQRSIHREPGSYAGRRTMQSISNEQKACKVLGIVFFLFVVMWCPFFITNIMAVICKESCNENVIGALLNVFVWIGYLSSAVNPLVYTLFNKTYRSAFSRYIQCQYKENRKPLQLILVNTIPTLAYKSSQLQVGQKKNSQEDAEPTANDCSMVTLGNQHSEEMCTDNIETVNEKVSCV
Experiment [7] addresses Beta Lactamase (Pseudomonas aeruginosa, UniProt Q932Y6).
Experiment [8] deals with ORF 73 (Human herpesvirus 8, UniProt O40947). In words: inhibitors of C-LANA binding to LBS DNA, dose response, biochemical, fluorescence polarization, cherry-picked samples (AID 504725).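 Further: fluorescence polarization of a labeled DNA duplex reporting LANA DNA binding; potency is for inhibitors that block LANA binding to the DNA.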 More on the design: species or system Human gammaherpesvirus 8. Background: In fluorescence polarisation assays a small probe gives low polarisation when free and higher when bound to something large.

In experiment [9] the target is Beta-lactamase (Salmonella choleraesuis (strain SC-B67), UniProt Q5J463).
Beta-lactamase (Salmonella choleraesuis (strain SC-B67), UniProt Q5J463), sequence (Q5J463 whole entry): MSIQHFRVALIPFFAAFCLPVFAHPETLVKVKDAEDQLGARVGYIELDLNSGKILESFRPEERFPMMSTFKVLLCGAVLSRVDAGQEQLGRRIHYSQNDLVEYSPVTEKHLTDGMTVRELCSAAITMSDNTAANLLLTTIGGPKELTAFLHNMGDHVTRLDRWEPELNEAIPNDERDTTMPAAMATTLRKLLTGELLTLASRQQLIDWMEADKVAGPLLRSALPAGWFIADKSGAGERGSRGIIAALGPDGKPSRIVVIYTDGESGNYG
Experiment [10] addresses Beta-lactamase (Pseudomonas aeruginosa, UniProt Q79MP6).
Experiment [11] deals with T2, Beta-2 adrenergic receptor (Homo sapiens, UniProt P07550). As to the kind of experiment: beta2AR agonists driving receptor internalization, dose response, cell-based, FAP fluorogen, flow cytometry, cherry pick 1 (AID 588763). Format: functional.
T2 sequence (P07550 whole entry): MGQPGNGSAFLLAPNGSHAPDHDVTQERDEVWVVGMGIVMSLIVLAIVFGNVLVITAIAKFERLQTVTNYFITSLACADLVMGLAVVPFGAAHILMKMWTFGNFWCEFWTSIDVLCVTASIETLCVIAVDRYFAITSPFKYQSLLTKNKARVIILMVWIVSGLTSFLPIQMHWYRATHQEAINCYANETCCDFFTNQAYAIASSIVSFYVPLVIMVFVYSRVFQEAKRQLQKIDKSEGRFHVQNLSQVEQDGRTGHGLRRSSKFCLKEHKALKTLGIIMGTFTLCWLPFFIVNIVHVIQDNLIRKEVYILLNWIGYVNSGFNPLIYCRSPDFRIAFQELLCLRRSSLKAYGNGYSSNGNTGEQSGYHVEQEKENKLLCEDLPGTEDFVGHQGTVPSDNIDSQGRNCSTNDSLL
In experiment [12] the target is T2, Beta-2 adrenergic receptor. As to the kind of experiment: Dose response for HTS for Beta-2AR agonists via FAP method from Powderset1. It counts as functional.
Experiment [13] has as its target Palmitoyl-protein thioesterase ABHD10, mitochondrial (Mus musculus, UniProt Q6PE15). As to the kind of experiment: Late stage assay provider results from the probe development effort to identify inhibitors of PME-1: fluorescence-based dose response biochemical gel-based competitive Activity-Based Protein Profiling (ABPP) inhibition of ABHD10 Set 1. Format: functional.

Experiment [14] concerns the target Broad substrate specificity ATP-binding cassette transporter ABCG2 (Homo sapiens, UniProt Q9UNQ0). As to the kind of experiment: ABCG2 efflux pump inhibitors, dose response, Ig-MXP3 cells, flow cytometry (AID 1690). Format: functional.
The target in experiment [15] is Galanin receptor type 3 (Homo sapiens, UniProt O60755). As to the kind of experiment: Fluorescence-based cell-based primary high throughput dose response assay to identify antagonists of the Galanin Receptor 3 (GalR3). Format: functional.
Galanin receptor type 3, sequence (O60755 whole entry): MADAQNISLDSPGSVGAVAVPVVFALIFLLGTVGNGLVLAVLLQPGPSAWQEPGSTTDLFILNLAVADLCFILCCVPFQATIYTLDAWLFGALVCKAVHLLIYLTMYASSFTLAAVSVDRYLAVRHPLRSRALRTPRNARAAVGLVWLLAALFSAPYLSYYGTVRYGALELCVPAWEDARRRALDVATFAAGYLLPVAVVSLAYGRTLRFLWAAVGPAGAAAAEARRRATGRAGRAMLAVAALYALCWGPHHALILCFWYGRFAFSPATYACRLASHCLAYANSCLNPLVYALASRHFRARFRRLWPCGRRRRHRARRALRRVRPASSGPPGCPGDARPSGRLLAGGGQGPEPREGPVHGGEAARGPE
Experiment [16] can be described thus: HEK293T cytotoxicity, dose response, cytotoxicity control for miR-122 modulator project, cell-based, inhibitor set, cherry-pick, set 2 (AID 720697). Format: functional.
A short description of experiment [17]: cells. Format: functional, cell-based. To be noted: HEK-CNG.
Experiment [18] addresses T3, Trace amine-associated receptor 1 (Homo sapiens, UniProt Q96RJ0).
T3 sequence (Q96RJ0 whole entry): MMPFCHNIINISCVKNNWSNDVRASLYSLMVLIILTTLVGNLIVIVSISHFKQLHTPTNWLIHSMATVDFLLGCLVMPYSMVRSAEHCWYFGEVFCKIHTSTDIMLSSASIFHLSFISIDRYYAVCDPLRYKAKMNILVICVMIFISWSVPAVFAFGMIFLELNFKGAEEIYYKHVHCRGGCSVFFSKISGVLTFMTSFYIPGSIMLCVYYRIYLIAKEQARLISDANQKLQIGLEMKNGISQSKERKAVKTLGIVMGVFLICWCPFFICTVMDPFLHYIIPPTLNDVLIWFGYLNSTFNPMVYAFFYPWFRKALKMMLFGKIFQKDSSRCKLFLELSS
In words: Fluorescence-based cell-based high throughput dose response assay to identify antagonists of the human trace amine associated receptor 1 (TAAR1). It counts as functional.

Experiment [19] is described as follows: Counterscreen for […] of the human trace amine associated receptor 1 (TAAR1): Fluorescence-based cell-based high throughput dose response assay to identify nonselective Ga16 agonists. Format: functional.
The target of experiment [20] is T3, Trace amine-associated receptor 1. As to the kind of experiment: Counterscreen for antagonists of the human trace amine associated receptor 1 (hTAAR1): Fluorescence-based cell-based high throughput dose response assay to identify TAAR1 Agonists. Format: functional. In general terms: The purpose of a counterscreen is to sort out artefacts and off-target activity.

Experiment [21] is described as follows: Counterscreen for antagonists of the human trace amine associated receptor 1 (hTAAR1): Fluorescence-based cell-based high throughput dose response assay to identify nonselective Ga16 antagonists. It counts as functional.

Molecules are shown by their SMILES. Where “and” joins values, the source holds several entries; their conditions need not be identical. Equal values may be shown once. Calls of active or inactive are those of the source. Some results are limits rather than exact numbers.

Tyrosine-protein phosphatase non-receptor type 5, sequence (P54829 whole entry): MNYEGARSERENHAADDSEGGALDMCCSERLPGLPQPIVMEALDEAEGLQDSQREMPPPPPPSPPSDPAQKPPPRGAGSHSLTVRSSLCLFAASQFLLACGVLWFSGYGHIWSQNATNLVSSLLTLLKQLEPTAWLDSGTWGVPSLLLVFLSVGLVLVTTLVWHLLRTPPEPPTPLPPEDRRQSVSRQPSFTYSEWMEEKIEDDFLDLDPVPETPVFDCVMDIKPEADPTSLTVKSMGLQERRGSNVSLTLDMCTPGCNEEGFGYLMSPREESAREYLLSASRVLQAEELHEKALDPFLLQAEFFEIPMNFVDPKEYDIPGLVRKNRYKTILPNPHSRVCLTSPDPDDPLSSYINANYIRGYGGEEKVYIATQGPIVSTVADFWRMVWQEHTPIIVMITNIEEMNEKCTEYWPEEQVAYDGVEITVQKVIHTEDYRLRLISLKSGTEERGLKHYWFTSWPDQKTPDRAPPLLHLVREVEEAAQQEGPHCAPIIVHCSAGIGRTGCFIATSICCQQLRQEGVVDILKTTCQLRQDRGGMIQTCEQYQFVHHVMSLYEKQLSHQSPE
Beta-lactamase (Pseudomonas aeruginosa, UniProt Q79MP6), sequence (Q79MP6 whole entry): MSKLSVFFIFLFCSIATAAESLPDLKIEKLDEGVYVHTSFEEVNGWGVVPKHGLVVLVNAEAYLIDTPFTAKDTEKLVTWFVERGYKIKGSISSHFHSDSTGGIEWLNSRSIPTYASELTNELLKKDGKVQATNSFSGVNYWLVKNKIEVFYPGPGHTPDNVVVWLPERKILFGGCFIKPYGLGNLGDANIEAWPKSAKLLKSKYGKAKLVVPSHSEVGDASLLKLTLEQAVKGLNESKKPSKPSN
Palmitoyl-protein thioesterase ABHD10, mitochondrial, sequence (Q6PE15 whole entry): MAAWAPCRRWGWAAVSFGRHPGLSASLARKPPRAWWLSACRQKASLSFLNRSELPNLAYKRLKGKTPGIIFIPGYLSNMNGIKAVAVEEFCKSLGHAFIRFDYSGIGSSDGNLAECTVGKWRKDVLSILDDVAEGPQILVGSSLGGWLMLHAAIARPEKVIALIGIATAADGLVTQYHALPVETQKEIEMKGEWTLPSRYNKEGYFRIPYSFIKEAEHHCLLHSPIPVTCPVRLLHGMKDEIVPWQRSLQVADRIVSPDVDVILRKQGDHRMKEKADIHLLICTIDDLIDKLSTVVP
Beta Lactamase, sequence (Q932Y6 whole entry): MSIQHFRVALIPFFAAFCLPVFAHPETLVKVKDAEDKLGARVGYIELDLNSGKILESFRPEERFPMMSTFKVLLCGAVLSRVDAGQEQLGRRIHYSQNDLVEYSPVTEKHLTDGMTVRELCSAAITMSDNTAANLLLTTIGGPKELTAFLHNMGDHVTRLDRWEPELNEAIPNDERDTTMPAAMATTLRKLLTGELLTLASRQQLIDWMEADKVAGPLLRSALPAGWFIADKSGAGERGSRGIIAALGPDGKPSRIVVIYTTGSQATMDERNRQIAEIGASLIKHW
Broad substrate specificity ATP-binding cassette transporter ABCG2, sequence (Q9UNQ0 whole entry): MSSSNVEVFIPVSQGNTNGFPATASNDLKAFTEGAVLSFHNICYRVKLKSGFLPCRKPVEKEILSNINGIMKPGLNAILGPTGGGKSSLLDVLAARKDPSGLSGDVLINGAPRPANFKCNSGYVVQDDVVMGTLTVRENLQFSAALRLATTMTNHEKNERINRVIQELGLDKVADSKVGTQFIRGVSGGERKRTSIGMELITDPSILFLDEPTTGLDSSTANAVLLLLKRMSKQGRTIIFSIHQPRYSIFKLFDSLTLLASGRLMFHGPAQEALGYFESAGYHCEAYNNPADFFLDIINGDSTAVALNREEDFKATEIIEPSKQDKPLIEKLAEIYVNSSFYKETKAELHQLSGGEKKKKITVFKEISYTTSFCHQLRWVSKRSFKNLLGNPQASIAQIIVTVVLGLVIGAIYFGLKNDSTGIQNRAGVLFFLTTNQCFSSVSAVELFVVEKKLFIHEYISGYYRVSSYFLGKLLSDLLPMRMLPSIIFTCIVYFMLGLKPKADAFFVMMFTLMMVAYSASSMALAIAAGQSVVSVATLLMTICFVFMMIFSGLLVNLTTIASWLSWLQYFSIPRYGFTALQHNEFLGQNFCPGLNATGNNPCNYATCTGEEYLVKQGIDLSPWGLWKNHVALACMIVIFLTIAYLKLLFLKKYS
Dual specificity protein phosphatase 3, sequence (P51452 whole entry): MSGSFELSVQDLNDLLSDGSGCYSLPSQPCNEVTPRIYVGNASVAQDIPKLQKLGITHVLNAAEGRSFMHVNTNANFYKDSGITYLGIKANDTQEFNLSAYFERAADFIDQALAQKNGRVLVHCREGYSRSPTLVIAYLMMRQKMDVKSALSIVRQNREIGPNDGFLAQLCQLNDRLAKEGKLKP

As for `Cc1c(C)c2ccc(OCC(=O)Nc3ccc(S(N)(=O)=O)cc3)c(C)c2oc1=O`, the IC50 in experiment [1] is 10.8 µM (active); in [2], 6.82 µM (active); in experiment [3], 22.9 µM (inactive); in [4], 44.9 µM (inactive).
As for `Clc1ccc(CN2CCN(c3ncccn3)CC2)cc1Cl`, the EC50 in experiment [5] is 92.5 µM (inactive); in [6] it was 0.424 µM (active).
Consider `CN(C)c1ccc(/C=N/N(CCO)C2=NS(=O)(=O)c3ccccc32)cc1`, for which the IC50 in experiment [7] is 9.4 µM (active); in experiment [9] it was 6.94 µM (active); in experiment [10], 8.93 µM (active). Moreover, in experiment [8], the AC50 is 1 µM (active).
As to `Cc1ccc(S(=O)(=O)N(C)CC(=O)N2CCN(c3ccccn3)CC2)cc1`, the EC50 in experiment [11] is 167 nM (active) and 60.7 nM (active); in experiment [12] it was 0.002 µM (active).
For `CC[C@@]1(c2ccccc2)C(=O)N(C(=O)OC(C)C)N1C(=O)OC(C)C`, the IC50 in experiment [13] was 0.13 µM (active).
Turning to `O=[N+]([O-])c1ccc(Nc2nc(Cl)nc(NCCO)n2)cc1`, the EC50 in experiment [14] is 4.63 µM (active).
Consider `Cc1nc(O)c(C#N)cc1-c1ccccc1`, for which the IC50 in experiment [15] was 5.68 µM (active). For the same compound, the AC50 in experiment [16] is 2.43 µM (active). Moreover, the EC50 in experiment [17] was > 29.9 µM (inactive).
Take `O=C(Nc1cccnc1)c1ccc(COc2ccccc2Br)cc1`: the IC50 is 4.17 µM (active) in [18] and > 29.9 µM (inactive) in experiment [21]. Also, the EC50 in [19] and in experiment [20] was > 29.9 µM (inactive) each time.

One may read the EC50 as the concentration needed to bring the measured effect to its halfway point. One may read the AC50 as the midpoint of the concentration-response curve, whichever way the signal moves.

Values taken from ChEMBL document CHEMBL1201862, “PubChem BioAssay data set” (2004).
